Test results reported in the Kinase Knowledgebase extract (Sharma et al. 2016).

Target: MAPK14 (UniProt Q16539)
Test: Inhibition of MAPK14 Kinase Activity

Sequence of MAPK14 (Q16539 whole entry, looked up): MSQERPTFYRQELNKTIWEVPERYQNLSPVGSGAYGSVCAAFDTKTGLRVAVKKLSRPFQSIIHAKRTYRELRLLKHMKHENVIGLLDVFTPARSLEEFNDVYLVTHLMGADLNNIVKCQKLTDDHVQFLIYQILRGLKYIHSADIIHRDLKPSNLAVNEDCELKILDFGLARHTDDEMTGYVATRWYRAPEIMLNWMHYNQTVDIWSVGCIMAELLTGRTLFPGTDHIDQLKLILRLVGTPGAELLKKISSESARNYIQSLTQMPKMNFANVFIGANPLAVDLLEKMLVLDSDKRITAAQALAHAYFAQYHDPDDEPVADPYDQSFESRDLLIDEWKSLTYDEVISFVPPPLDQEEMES

SMILES: CCN(C)C(=O)C(=O)c1c[nH]c2nc(OC)c(C(=O)N3CCC(Cc4ccc(F)cc4)CC3)cc12
- IC50: 63 nM

SMILES: COc1nc2[nH]ccc2cc1C(=O)N1C[C@H](C)N(Cc2ccc(F)cc2)C[C@H]1C
- IC50: 35 nM

SMILES: COc1cc2[nH]ccc2nc1C(=O)N1C[C@H](C)N(Cc2ccc(F)cc2)C[C@H]1C
- IC50: 41 nM

SMILES: COc1nc2[nH]cc(C(=O)C(=O)NN3CCCC3)c2cc1C(=O)N1CCC(Cc2ccc(F)cc2)CC1
- IC50: 39 nM

SMILES: COc1nc2[nH]cc(C(=O)C(=O)N3CCCC3)c2cc1C(=O)N1CCC(Cc2ccc(F)cc2)CC1
- IC50: 50 nM

SMILES: COCn1cc(C(=O)C(=O)N2CCCC2)c2cc(C(=O)N3CCC(Cc4ccc(F)cc4)CC3)c(OC)nc21
- IC50: 79 nM

SMILES: CCNC(=O)C(=O)c1cn(C)c2nc(OC)c(C(=O)N3C[C@H](C)N(Cc4ccc(F)cc4)C[C@H]3C)cc12
- IC50: 20 nM

SMILES: COCC(=O)c1c[nH]c2nc(OC)c(C(=O)N3CCN(Cc4ccc(F)cc4)C[C@H]3C)cc12
- IC50: 76 nM

SMILES: COCn1ccc2cc(C(=O)N3CCC(Cc4ccc(F)cc4)CC3)c(OC)nc21
- IC50: 340 nM

SMILES: COc1nc2[nH]cc(C(=O)C(=O)N(C)C)c2cc1C(=O)N1CCC(Cc2ccc(F)cc2)CC1
- IC50: 60 nM

SMILES: CNC(=O)C(=O)c1c[nH]c2nc(OC)c(C(=O)N3CCC(Cc4ccc(F)cc4)CC3)cc12
- IC50: 44 nM

SMILES: COc1nc2[nH]cc(C(=O)C(=O)NCCO)c2cc1C(=O)N1CCC(Cc2ccc(F)cc2)CC1
- IC50: 56 nM

SMILES: COc1nc2[nH]cc(C(=O)C(=O)N3CC[C@@H](O)C3)c2cc1C(=O)N1CCC(Cc2ccc(F)cc2)CC1
- IC50: 32 nM

SMILES: COCn1cc(C(=O)C(=O)NC(C)C)c2cc(C(=O)N3C[C@H](C)N(Cc4ccc(F)cc4)C[C@H]3C)c(OC)nc21
- IC50: 60 nM

SMILES: COc1nc2c(cc1C(=O)N1CCC(Cc3ccc(F)cc3)CC1)c(C(=O)C(=O)N1CCCC1)cn2C
- IC50: 35 nM

SMILES: C[C@@H]1CN(Cc2ccc(F)cc2)[C@@H](C)CN1C(=O)c1nc2cc[nH]c2cc1Cl
- IC50: 66 nM
